The structures appear in SMILES notation. Records with an inconclusive call do not appear.

In the test the test system is C2C12 myotubes + simvastatin, ATP luminescence, 48 h. Nature of the test: suppressors of statin myotoxicity in myotubes, dose response, cell-based, C2C12 myotubes, ATP luminescence, cherry pick (AID 624405).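 Also: myotubes are challenged with simvastatin at 10 µM to lower ATP.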
`COc1ccc(S(=O)(=O)N2CCCCC2)cc1C(C)C`: the AC40 was 8.77 µM.

As for `C[C@@H]1CN([C@@H](C)CO)C(=O)Cc2cc(N(C)C)ccc2O[C@@H]1CN(C)Cc1ccc(Cl)c(Cl)c1`, the AC40 was 9.93 µM. On to `Cc1ccc(C2OC(=O)c3ccccc32)cc1` (centres undefined), for which the AC40 is 2.21 µM. The value for `Fc1ccc(C2=Nn3c(nnc3-c3n[nH]c4c3CCC4)SC2)cc1` was 1.23 µM; that for `C[C@H](CO)N1C[C@H](C)[C@H](CN(C)Cc2ccc(C(=O)Nc3ccccc3N)cc2)Oc2ccc(NC(=O)Cc3cn(C)c4ccccc34)cc2C1=O` was 6.08 µM. On to `COc1ccc(CC2NCC(O)C2OC(C)=O)cc1` (centres undefined), for which the AC40 is 0.275 µM.

As to `Cc1ccc(S(=O)(=O)Nc2ccc3c(c2)CC(=O)N([C@H](C)CO)C[C@H](C)[C@@H](CN(C)Cc2ccc4c(c2)OCO4)O3)cc1`, the AC40 is 14.1 µM. The value for `CCOCCCN1CN(S(=O)(=O)c2ccc(Cl)cc2)c2nc3ccccc3nc21` was 1.87 µM; that for `Cc1ccc(-c2nnc(CSc3nnc(COc4cccc5ccccc45)n3-c3ccccc3)o2)cc1` was 18.2 µM; that for `CN1C(=O)c2ccc(N(C)C)cc2C1=O` was 9.68 µM. As for `COc1ccc(Nc2nc3ccc(C)cn3c(=O)c2/C=N/O)cc1`, the figure is 15.2 µM; as for `C=CCn1c(SCC(=O)NC2CCCC2)nc2scc(-c3ccco3)c2c1=O`, 9.19 µM; as for `Cc1csc(NC(=O)CSc2nc3[nH]c(=O)cc(O)c3s2)n1`, 4.2 µM.

`C=CCOc1ccc(Br)cc1/C=N/O`: the AC40 is 17.9 µM.

Turning to `COc1ccc(-n2c(C)cc(C=O)c2C)cc1Cl`, the AC40 was 9.14 µM. For `Cc1cc(C(=O)COC(=O)C2=NNC(=O)CC2)c(C)n1-c1ccccc1`, the AC40 is 11.7 µM.

As for `CC(=O)c1ccc(-c2cc([C@H]3[C@H]4C=CC[C@@H](C)[C@@H]4C(=O)N3Cc3ccccc3)ccc2F)cc1`, the AC40 is 8.76 µM.

Take `Cc1onc(-c2ccccc2Cl)c1C(=O)NCc1nc(-c2ccccc2)no1`: the AC40 was 8.26 µM. Regarding `O=C(c1cccc(Cl)c1)c1nn(-c2ccccc2)c(=O)cc1C(F)(F)F`, the AC40 is 4.99 µM.

Consider `C[C@@H]1CN([C@H](C)CO)C(=O)Cc2cc(NC(=O)CCCCCC(=O)Nc3ccccc3N)ccc2O[C@@H]1CN(C)Cc1ccccc1`, for which the AC40 was 14.4 µM.

As to `N#C[C@@H]1[C@@H](c2ccc(-c3ccc(F)cc3)cc2)[C@H](CO)N1C(=O)Cc1ccccc1`, the AC40 is 9.36 µM. As for `C[C@H]1CN([C@@H](C)CO)C(=O)Cc2cc(NC(=O)CCCCCC(=O)Nc3ccccc3N)ccc2O[C@H]1CN(C)Cc1ccc(C(F)(F)F)cc1`, the figure is 4.15 µM; as for `CCS(=O)(=O)c1ncc(Cl)c(C(=O)Nc2ccccc2OC)n1`, 2.12 µM. For the compound `C[C@H](CO)N1C[C@H](C)[C@@H](CN(C)Cc2ccc(Cl)c(Cl)c2)Oc2ccc(NC(=O)Cc3cn(C)c4ccccc34)cc2CC1=O`, the AC40 is 7.35 µM. The value for `C[C@@H]1CN([C@H](C)CO)C(=O)Cc2cc(NS(=O)(=O)c3ccc(Cl)cc3)ccc2O[C@H]1CN(C)CC1CCCCC1` was 9.96 µM; that for `C[C@H]1CN([C@@H](C)CO)C(=O)c2cc(NC(=O)Nc3cccc4ccccc34)ccc2O[C@H]1CN(C)Cc1ccc(C(=O)Nc2ccccc2N)cc1` was 5.45 µM. The value for `C[C@H](CO)N1C[C@H](C)[C@@H](CN(C)Cc2ccc(Oc3ccccc3)cc2)Oc2ccc(NC(=O)C3CCCCC3)cc2CC1=O` was 8.63 µM. As for `C[C@H]1CN([C@@H](C)CO)C(=O)Cc2cc(NS(=O)(=O)c3ccc(F)cc3)ccc2O[C@@H]1CN(C)Cc1ccc(Cl)c(Cl)c1`, the figure is 15.8 µM. In the case of `CCOc1c(S(=O)(=O)N2CCCC2)ccc(Cl)c1Cl`, the AC40 was 5.43 µM.

With `CC(=O)c1cc(F)c(N2CCCC2)cc1C`, the AC40 was 17.4 µM. The value for `C[C@@H]1CN([C@H](C)CO)C(=O)c2cc(NS(=O)(=O)c3ccc(Cl)cc3)ccc2O[C@@H]1CN(C)Cc1ccc(C(=O)Nc2ccccc2N)cc1` was 11.3 µM. For `Cc1ccc(S(=O)(=O)N2CCN(C(=O)c3cccs3)CC2)cc1C`, the AC40 is 9.44 µM. Take `O=C(Nc1ccc2nc3n(c(=O)c2c1)CCCCC3)c1c(F)ccc([N+](=O)[O-])c1F`: the AC40 is 4.3 µM.

Regarding `Cc1noc(C)c1NC(=O)Nc1cccc2c1O[C@H](CN(C)Cc1ccc(-c3ccccc3)cc1)[C@@H](C)CN([C@H](C)CO)C2=O`, the AC40 is 12.6 µM. As for `CCN(CC)c1ncnc2c1cnn2Cc1ccc(C)cc1`, the figure is 12 µM; as for `C[C@H]1C[C@@H](C)C(=O)[C@@H]([C@H](O)CC2CC(=O)NC(=O)C2)C1`, less than 0.16 µM; as for `Fc1ccccc1OCCCCn1cncn1`, 18.6 µM. As for `CC1Cc2ccccc2N1C(=O)CSc1nnc(Cc2ccccc2)n1CCc1ccccc1` (centres undefined), the figure is 8.6 µM; as for `Cc1nc(-c2cccc(S(=O)(=O)N3CC(C)OC(C)C3)c2)cs1` (centres undefined), 18.3 µM. The value for `C[C@H]1CN([C@@H](C)CO)S(=O)(=O)c2ccc(-c3cccc(F)c3)cc2O[C@@H]1CN(C)S(=O)(=O)c1ccc(F)cc1` was 15.5 µM; that for `O=C(C1CCC1)N1CCCc2cc(S(=O)(=O)N3CCN(c4ccccc4)CC3)ccc21` was 16.6 µM. Regarding `C[C@@H]1CN([C@H](C)CO)C(=O)c2cc(NC(=O)Nc3cccc4ccccc34)ccc2O[C@@H]1CN(C)Cc1ccc(C(=O)Nc2ccccc2N)cc1`, the AC40 is 6.44 µM.

Consider `Oc1ccc(Cl)cc1C1=NNC(c2cccs2)C1` (centres undefined), for which the AC40 was 11.4 µM. `Cc1nn2c3ccccc3n(Cc3ccccc3)c2nc1=O`: the AC40 was 19 µM.

As to `COC(=O)c1cc(=O)n(CCc2ccccc2F)c(=Nc2ccc(F)c(Cl)c2)s1`, the AC40 was 2.81 µM. The value for `COc1ccc(S(=O)(=O)N(C)C[C@H]2Oc3c(NC(=O)Nc4ccc(F)cc4)cccc3C(=O)N([C@@H](C)CO)C[C@H]2C)cc1` was 14.5 µM; that for `O=C(Nc1cccc(O)c1)c1cc(-c2cccs2)on1` was 5.99 µM; that for `CS(=O)(=O)N1CCN(C(=O)c2cc(-c3ccncc3)nc3ccc(Cl)cc23)CC1` was 11.4 µM. The value for `O=C(C[C@H]1CC[C@@H]2[C@H](COC[C@H](O)CN2CCC(F)(F)F)O1)NCc1ccc(Oc2ccccc2)cc1` was 7.6 µM. For the compound `C[C@@H]1CN([C@H](C)CO)C(=O)Cc2cc(NC(=O)CCCCCC(=O)Nc3ccccc3N)ccc2O[C@H]1CN(C)Cc1ccc(-c2ccccc2)cc1`, the AC40 was 6.3 µM. As for `OC(c1cccc(OCc2ccccc2)c1)c1nnc(-c2ccccc2)o1` (centres undefined), the figure is 5.24 µM; as for `COc1ccccc1NS(=O)(=O)c1cccc(NC(=O)c2nc3nc(C)cc(C)n3n2)c1`, 8.63 µM. Regarding `CC1CCN(c2nc3c(c(=O)[nH]c(=O)n3C)n2CCCc2ccccc2)CC1`, the AC40 is 4.71 µM. `N#C[C@@H]1[C@@H](c2ccc(-c3cccc(F)c3)cc2)[C@H](CO)N1C(=O)NC1CCCC1`: the AC40 was 0.38 µM. As to `Cc1ccc(S(=O)(=O)Nc2ccc3c(c2)CC(=O)N([C@@H](C)CO)C[C@H](C)[C@@H](CN(C)Cc2ccc(Cl)c(Cl)c2)O3)cc1`, the AC40 was 11.9 µM.

On to `C[C@H](CO)N1C[C@H](C)[C@H](CN(C)Cc2ccc(Cl)c(Cl)c2)Oc2ccc(NC(=O)CCCCCC(=O)Nc3ccccc3N)cc2CC1=O`, for which the AC40 is 13.4 µM.

Consider `C[C@H](CO)N1C[C@H](C)[C@@H](CN(C)Cc2ccc(Cl)c(Cl)c2)Oc2ccc(NS(=O)(=O)c3cn(C)cn3)cc2CC1=O`, for which the AC40 was 5.29 µM. As for `Clc1ccc(Cn2ncc3c(N4CCCCC4)ncnc32)cc1`, the figure is 15.8 µM; as for `C[C@H](CO)N1C[C@H](C)[C@@H](CN(C)Cc2ccc(C(=O)Nc3ccccc3N)cc2)Oc2ccc(NC(=O)Nc3ccc4c(c3)OCO4)cc2CC1=O`, 11.7 µM; as for `COc1cc(OC)cc(-c2nnc(SCC(=O)N3CCCc4ccccc43)o2)c1`, 16.8 µM. As for `C[C@@H]1CN([C@@H](C)CO)C(=O)Cc2cc(NC(=O)CCCCCC(=O)Nc3ccccc3N)ccc2O[C@H]1CN(C)Cc1ccccc1`, the AC40 was 12.2 µM. The value for `CCCn1c(NC(=O)c2ccco2)nc2ccccc21` was 1.39 µM; that for `C[C@@H]1CN([C@H](C)CO)C(=O)Cc2cc(NC(=O)CCCCCC(=O)Nc3ccccc3N)ccc2O[C@@H]1CN(C)CC1CCCCC1` was 15.4 µM; that for `CCn1c(-c2ccc(-c3ccccc3)cc2)c[nH]c1=S` was 3.72 µM.

Regarding `C[C@H]1CN([C@@H](C)CO)S(=O)(=O)c2ccc(C#CC3CC3)cc2O[C@H]1CN(C)C(=O)Nc1cc(F)ccc1F`, the AC40 is 3.66 µM.

Turning to `C[C@H]1CN([C@@H](C)CO)C(=O)c2cc(NC(=O)Cc3cn(C)c4ccccc34)ccc2O[C@H]1CN(C)Cc1ccc(C(=O)Nc2ccccc2N)cc1`, the AC40 is 3.17 µM.

With `C[C@@H]1C[C@@H]([C@H](O)CC2CC(=O)NC(=O)C2)C(=O)[C@@H](C)C1`, the AC40 was less than 0.16 µM. The value for `C[C@@H]1CN([C@H](C)CO)C(=O)Cc2cc(NS(C)(=O)=O)ccc2O[C@@H]1CN(C)Cc1ccc(-c2ccccc2)cc1` was 18.4 µM; that for `N#C[C@@H]1[C@@H](c2ccccc2)[C@H](CO)N1S(=O)(=O)c1ccc(-c2ccccc2)cc1` was 8.78 µM. As for `COc1ccc(-c2csc(C(C)(O)c3ccccc3)n2)cc1OC` (centres undefined), the AC40 is 13.4 µM. As to `C[C@@H]1CN([C@@H](C)CO)C(=O)c2cc(NS(=O)(=O)c3ccc(Cl)cc3)ccc2O[C@H]1CN(C)C(=O)Nc1cccc2ccccc12`, the AC40 was 9.49 µM.

Take `CCOC(=O)N1CCN(C(=O)CN(Cc2ccccc2)S(=O)(=O)c2ccc(OC)c(Cl)c2)CC1`: the AC40 was 15.7 µM. Regarding `C[C@H](CO)N1C[C@H](C)[C@H](CN(C)Cc2ccc(C(=O)Nc3ccccc3N)cc2)Oc2ccc(N(C)C)cc2C1=O`, the AC40 is 2.53 µM.

Turning to `O=C(C[C@H]1CC[C@@H]2[C@H](COC[C@@H](O)CN2Cc2ccc(Oc3ccccc3)cc2)O1)N1CCCCC1`, the AC40 is 3.19 µM. The value for `O=C(NCc1ccco1)c1cc2sccc2n1Cc1ccc(F)cc1` was 16.4 µM. The value for `O=C1C[C@@H]2c3c(cccc3CN1Cc1ccccc1F)C[C@@H](O)[C@H]2O` was 17.2 µM; that for `C[C@H]1CN([C@@H](C)CO)C(=O)Cc2cc(NC(=O)CCCCCC(=O)Nc3ccccc3N)ccc2O[C@H]1CN(C)Cc1ccccc1` was 3.02 µM. The value for `Cc1ccc(S(=O)(=O)N(C)C[C@@H]2Oc3ccc(NS(=O)(=O)c4ccc(Cl)cc4)cc3C(=O)N([C@H](C)CO)C[C@@H]2C)cc1` was 8.22 µM; that for `COc1ccc(S(=O)(=O)Nc2ccc3c(c2)CC(=O)N([C@H](C)CO)C[C@@H](C)[C@H](CN(C)CC2CCCCC2)O3)cc1` was 2.63 µM.

For the origin of these results see PubChem BioAssay AID624405 (Broad Institute, 2012).
